Measurements reported in the supplement of paper PMC13380429.

Experiments:
Conditions in all cases: 72 h
Caco-2 [1] = test: cell viability relative to DMSO; higher = less toxic
Calu-3 [2] = test: as above
HepG2 [3] = test: as above
U2OS [4] = test: as above
Vero E6 [5] = test: as above
Caco-2 [6] = test: relative viability EC50 (midpoint between 100% and the lowest measured viability); higher = less toxic
Calu-3 [7] = test: as above
HepG2 [8] = test: as above
U2OS [9] = test: as above
Vero E6 [10] = test: as above
Caco-2 [11] = test: drug sensitivity score (DSS) for viability; higher = more toxic; extreme values may be limits of the assay
Calu-3 [12] = test: as above
HepG2 [13] = test: as above
U2OS [14] = test: as above
Vero E6 [15] = test: as above

SMILES | cell viability (Caco-2 [1]; 1 nM) [%] | cell viability (Caco-2 [1]; 10 nM) [%] | cell viability (Caco-2 [1]; 100 nM) [%] | cell viability (Caco-2 [1]; 1000 nM) [%] | cell viability (Caco-2 [1]; 10000 nM) [%] | cell viability (Calu-3 [2]; 1 nM) [%] | cell viability (Calu-3 [2]; 10 nM) [%] | cell viability (Calu-3 [2]; 100 nM) [%] | cell viability (Calu-3 [2]; 1000 nM) [%] | cell viability (Calu-3 [2]; 10000 nM) [%] | cell viability (HepG2 [3]; 1 nM) [%] | cell viability (HepG2 [3]; 10 nM) [%] | cell viability (HepG2 [3]; 100 nM) [%] | cell viability (HepG2 [3]; 1000 nM) [%] | cell viability (HepG2 [3]; 10000 nM) [%] | cell viability (U2OS [4]; 1 nM) [%] | cell viability (U2OS [4]; 10 nM) [%] | cell viability (U2OS [4]; 100 nM) [%] | cell viability (U2OS [4]; 1000 nM) [%] | cell viability (U2OS [4]; 10000 nM) [%] | cell viability (Vero E6 [5]; 1 nM) [%] | cell viability (Vero E6 [5]; 10 nM) [%] | cell viability (Vero E6 [5]; 100 nM) [%] | cell viability (Vero E6 [5]; 1000 nM) [%] | cell viability (Vero E6 [5]; 10000 nM) [%] | relative viability EC50 (Caco-2 [6]) [µM] | relative viability EC50 (Calu-3 [7]) [µM] | relative viability EC50 (HepG2 [8]) [µM] | relative viability EC50 (U2OS [9]) [µM] | relative viability EC50 (Vero E6 [10]) [µM] | drug sensitivity score (Caco-2 [11]) | drug sensitivity score (Calu-3 [12]) | drug sensitivity score (HepG2 [13]) | drug sensitivity score (U2OS [14]) | drug sensitivity score (Vero E6 [15])
CC1(C)Cc2c(-c3ccccc3)c(-c3ccc(Cl)cc3)c(CC(=O)O)n2C1 [licofelone] | 94.8 | 94.9 | 87.5 | 96.9 | 85.3 | 104 | 101 | 100 | 96 | 95 | 110 | 102 | 95.4 | 101 | 93.1 | 101 | 101 | 97.5 | 102 | 90.9 | 102 | 102 | 102 | 107 | 99.5 | > 10 | > 10 | > 10 | > 10 | > 10 | 0.1 | 0 | 0 | 0 | 0
Clc1cccc(N2CCNCC2)c1 [mCPP] | 88.9 | 97 | 96.1 | 92.4 | 98.4 | 91.4 | 102 | 104 | 104 | 100 | 97.7 | 95.3 | 96 | 100 | 105 | 99.8 | 93.3 | 103 | 97.1 | 93.9 | 88.9 | 103 | 96.7 | 100 | 106 | > 10 | > 10 | > 10 | > 10 | > 10 | 0 | 0 | 0 | 0 | 0
CN1CCCCC1CCN1c2ccccc2Sc2ccc([S+](C)[O-])cc21 (stereo not given) [mesoridazine] | 93.4 | 93.9 | 90.5 | 97 | 110 | 101 | 108 | 97.7 | 105 | 120 | 108 | 93.2 | 120 | 106 | 111 | 95.3 | 101 | 96.7 | 97.5 | 101 | 93.2 | 96.7 | 91 | 90.1 | 96.5 | > 10 | > 10 | > 10 | > 10 | > 10 | 0 | 0 | 0 | 0 | 0
CC(C)NCC(O)c1cc(O)cc(O)c1 (stereo not given) [metaproterenol] | 93.4 | 90.8 | 104 | 106 | 95.1 | 101 | 97.2 | 106 | 108 | 98 | 98.6 | 110 | 108 | 108 | 108 | 98.3 | 96.8 | 98.9 | 98.7 | 102 | 94.4 | 95.6 | 92.7 | 94.7 | 113 | > 10 | > 10 | > 10 | > 10 | > 10 | 0 | 0 | 0 | 0 | 0
C[C@](N)(Cc1ccc(O)c(O)c1)C(=O)O [methyldopa] | 97.5 | 103 | 89.8 | 106 | 99.9 | 96.9 | 102 | 101 | 98.9 | 93.6 | 94.1 | 97.4 | 104 | 92.3 | 108 | 101 | 103 | 96.7 | 97.8 | 93.1 | 99.2 | 102 | 94.5 | 97.9 | 106 | > 10 | > 10 | > 10 | > 10 | > 10 | 0 | 0 | 0 | 0 | 0
CC1(C)S[C@@H]2[C@H](NC(=O)[C@H](NC(=O)N3CCN(S(C)(=O)=O)C3=O)c3ccccc3)C(=O)N2[C@H]1C(=O)O [mezlocillin] | 100 | 102 | 87.8 | 89.4 | 96.3 | 93.8 | 88.9 | 93.1 | 100 | 94.1 | 99.6 | 94.2 | 91.1 | 98.6 | 104 | 96.4 | 97.9 | 92.7 | 103 | 94.8 | 99.6 | 107 | 99.5 | 100 | 100 | > 10 | > 10 | > 10 | > 10 | > 10 | 1.1 | 0 | 0 | 0 | 0
O=c1c(O)c(-c2ccc(O)cc2O)oc2cc(O)cc(O)c12 [morin] | 102 | 96.5 | 96.6 | 102 | 88.6 | 113 | 99.5 | 96.3 | 91.6 | 102 | 87.2 | 103 | 98.9 | 97.4 | 98.9 | 101 | 93.7 | 104 | 97.3 | 102 | 94.9 | 95.8 | 99 | 98.4 | 95.9 | > 10 | > 10 | > 10 | > 10 | > 10 | 0 | 0 | 0 | 0 | 0
C[C@H]1O[C@@H](Oc2c(-c3cc(O)c(O)c(O)c3)oc3cc(O)cc(O)c3c2=O)[C@@H](O)[C@@H](O)[C@@H]1O [myricitrin] | 100 | 105 | 100 | 105 | 96 | 92.5 | 99.2 | 96.7 | 101 | 94.4 | 104 | 98.3 | 109 | 86.6 | 99.6 | 97.9 | 97.4 | 94.7 | 99.1 | 94.7 | 99.5 | 98.5 | 97.7 | 96.1 | 93.8 | > 10 | > 10 | > 10 | > 10 | > 10 | 0 | 0 | 0 | 0 | 0
C=CCN1CC[C@]23c4c5ccc(O)c4O[C@H]2/C(=N/NC(=O)c2ccccc2)CC[C@@]3(O)[C@H]1C5 [naloxone-benzoylhydrazone] | 91.7 | 93.8 | 101 | 94.7 | 112 | 95.4 | 95.8 | 89.4 | 103 | 112 | 101 | 99.5 | 102 | 96.4 | 101 | 100 | 101 | 97.4 | 103 | 105 | 97.9 | 102 | 102 | 97.2 | 107 | > 10 | > 10 | > 10 | > 10 | > 10 | 0 | 0 | 0 | 0 | 0
NCC1CC(=O)N(Cc2ccccc2)C1 (stereo not given) [nebracetam] | 87 | 91.8 | 84.4 | 97.8 | 99.7 | 99.7 | 96.3 | 93.1 | 94.4 | 107 | 109 | 108 | 92.8 | 96.6 | 98.5 | 97.4 | 104 | 95.7 | 100 | 104 | 94.5 | 93.6 | 97.8 | 91.4 | 108 | > 10 | > 10 | > 10 | > 10 | > 10 | 0 | 0 | 0 | 0 | 0
CNC(=O)c1c(-c2ccc(F)cc2)oc2cc(N(CCO)S(C)(=O)=O)c(C3CC3)cc12 [nesbuvir] | 94 | 101 | 95 | 99 | 101 | 108 | 107 | 99.9 | 110 | 103 | 97.3 | 90 | 103 | 92.2 | 107 | 93.3 | 102 | 96.4 | 99.9 | 102 | 98.4 | 97 | 98.6 | 93.6 | 103 | > 10 | > 10 | > 10 | > 10 | > 10 | 0 | 0 | 0 | 0 | 0
